According to publication PMC7126465 (Bioorganic & Medicinal Chemistry, 2017):

Legend:
[1] = tested on: HSV-2 (G); settings: read-out: EC50 (HEL) HSV-2 (G); HEL cells; ref Krecmerova et al. (Ref. [7]); cited from earlier work
[2] = tested on: Vaccinia virus; settings: read-out: EC50 (HEL) Vaccinia virus; HEL cells; ref Krecmerova et al. (Ref. [7]); cited from earlier work
[3] = tested on: HCMV (Davis); settings: read-out: EC50 (HEL) HCMV (Davis); HEL cells; ref Krecmerova et al. (Ref. [7]); cited from earlier work
[4] = tested on: human embryonic lung (HEL) cells; settings: ref Krecmerova et al. (Ref. [7]); cited from earlier work
[5] = tested on: human embryonic lung (HEL) cells; settings: read-out: Cytotoxicity CC50, ref Krecmerova et al. (Ref. [7]); cited from earlier work
[6] = tested on: VZV TK+ (Oka); settings: read-out: EC50 (HEL) VZV TK+ (Oka); HEL cells; ref Krecmerova et al. (Ref. [7]); cited from earlier work
[7] = tested on: HSV-1 (Kos); settings: read-out: EC50 (HEL) HSV-1 (Kos); HEL cells; ref Krecmerova et al. (Ref. [7]); cited from earlier work
[8] = tested on: VZV TK− (07-1); settings: read-out: EC50 (HEL) VZV TK− (07-1); HEL cells; ref Krecmerova et al. (Ref. [7]); cited from earlier work
[9] = tested on: herpesviruses (HSV, VZV, HCMV); assay: Anti-herpesvirus activity overall; type: cell-based; settings: HEL cells
[10] = tested on: HCMV (AD-169); settings: read-out: EC50 (HEL) HCMV (AD-169); HEL cells; ref Krecmerova et al. (Ref. [7]); cited from earlier work

## Nc1ncn(CCOCP(=O)(O)O)c(=O)n1 [Compound 6, 1-[2-(phosphonomethoxy)ethyl]-5-azacytosine]
[1]
  EC50: 103 µM
[2]
  EC50: > 398 µM
[3]
  EC50: 147 µM
[4]
  Cytotoxicity MCC: >398 µM
[5]
  CC50: > 200 µM
[6]
  EC50: 100 µM
[7]
  EC50: 39 µM
[8]
  EC50: 40 µM
[9]
  Anti-herpesvirus activity (in words): marginal anti-herpesvirus activity
[10]
  EC50: 195 µM
